Experimental data taken from ChEMBL document CHEMBL1201862, “PubChem BioAssay data set” (2004).
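Step 1: Grow cells in 96-well plates. Step 2: Expose to compound for 48 hours at 5 concentrations. Step 3: Interpolate endpoints linearly; if unreached, use highest concentration. GI50 is the concentration that inhibits growth by half.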 Calls of active or inactive are those of the source. Cut-off read from the data, not from the text of the source: active = GI50 up to about 1.1 µM and inactive = higher.

Columns and labels:
Assay in all cases: growth of human tumour cells (NCI), 48 h
A549 = tested on: A549
CAKI-1 = tested on: CAKI-1
HL-60 = tested on: HL-60
HOP-92 = tested on: HOP-92
K562 = tested on: K562
NCI-H23 = tested on: NCI-H23
OVCAR-4 = tested on: OVCAR-4
SF-539 = tested on: SF-539
SK-MEL-5 = tested on: SK-MEL-5
SN12C = tested on: SN12C
SNB-75 = tested on: SNB-75
U-251 = tested on: U-251
UACC-257 = tested on: UACC-257
CCRF-CEM = tested on: CCRF-CEM
RPMI-8226 = tested on: RPMI-8226

| Structure (SMILES) | GI50 (A549) | GI50 (CAKI-1) | GI50 (HL-60) | GI50 (HOP-92) | GI50 (K562) | GI50 (NCI-H23) | GI50 (OVCAR-4) | GI50 (SF-539) | GI50 (SK-MEL-5) | GI50 (SN12C) | GI50 (SNB-75) | GI50 (U-251) | GI50 (UACC-257) | GI50 (CCRF-CEM) | GI50 (RPMI-8226) |
| --- | --- | --- | --- | --- | --- | --- | --- | --- | --- | --- | --- | --- | --- | --- | --- |
| CC(C)OCN1COCN/C1=N/C#N | > 100 µM (inactive) | > 100 µM (inactive) | > 100 µM (inactive) | > 100 µM (inactive) | > 100 µM (inactive) | > 100 µM (inactive) | > 100 µM (inactive) | > 100 µM (inactive) | > 100 µM (inactive) | > 100 µM (inactive) | > 100 µM (inactive) | 42.2 µM (inactive) | > 100 µM (inactive) | – | – |
| CN(C)CC/C(=N\Nc1c(Cl)cccc1Cl)c1ccccc1 | 29.3 µM (inactive) | – | 16.3 µM (inactive) | – | 20.6 µM (inactive) | 15.6 µM (inactive) | 20.3 µM (inactive) | 16.9 µM (inactive) | 15.1 µM (inactive) | 28.7 µM (inactive) | 15.2 µM (inactive) | 16.8 µM (inactive) | 17.7 µM (inactive) | 28.2 µM (inactive) | 17.2 µM (inactive) |
| O=c1oc2c3ccc4ccccc4c3n(Cc3nc4ccccc4[nH]3)c2c2ccccc12 | 5.61 µM (inactive) | 3.77 µM (inactive) | 3.7 µM (inactive) | > 29.3 µM (inactive) | 2.47 µM (inactive) | 4.95 µM (inactive) | 24.9 µM (inactive) | 3.54 µM (inactive) | – | 3.72 µM (inactive) | 5.51 µM (inactive) | 4.25 µM (inactive) | 5.01 µM (inactive) | 1.07 µM (active) | 3.48 µM (inactive) |
| N#CC1C(=O)NC(=O)C1=O (configuration not stated) | – | > 100 µM (inactive) | – | > 100 µM (inactive) | > 100 µM (inactive) | > 100 µM (inactive) | > 100 µM (inactive) | > 100 µM (inactive) | > 100 µM (inactive) | > 100 µM (inactive) | > 100 µM (inactive) | > 100 µM (inactive) | > 100 µM (inactive) | – | > 100 µM (inactive) |
| O/N=C/c1ccc(O)c(O)c1 | > 100 µM (inactive) | 67.8 µM (inactive) | 12.8 µM (inactive) | > 100 µM (inactive) | 55.8 µM (inactive) | > 100 µM (inactive) | 77.3 µM (inactive) | > 100 µM (inactive) | 62.8 µM (inactive) | > 100 µM (inactive) | > 100 µM (inactive) | 61.7 µM (inactive) | > 100 µM (inactive) | 7.38 µM (inactive) | – |
| Cc1cc(NS(=O)(=O)c2ccc(NC(=O)c3cccc4c(=O)c5ccccc5[nH]c34)cc2)no1 | > 100 µM (inactive) | 65.8 µM (inactive) | 30.9 µM (inactive) | 29.5 µM (inactive) | 36.1 µM (inactive) | 60.7 µM (inactive) | 51.6 µM (inactive) | 28.9 µM (inactive) | 40.8 µM (inactive) | 44.1 µM (inactive) | 23.1 µM (inactive) | 29.9 µM (inactive) | 87.7 µM (inactive) | 32.6 µM (inactive) | 33.8 µM (inactive) |
| CCCCN/C(=N/C#N)NCc1ccccc1 | > 100 µM (inactive) | > 100 µM (inactive) | > 100 µM (inactive) | > 100 µM (inactive) | – | > 100 µM (inactive) | > 100 µM (inactive) | > 100 µM (inactive) | > 100 µM (inactive) | > 100 µM (inactive) | 42.8 µM (inactive) | > 100 µM (inactive) | – | > 100 µM (inactive) | > 100 µM (inactive) |
| Cc1ccc(/N=C/c2ccc3c(c2)OCO3)cc1C | > 100 µM (inactive) | > 100 µM (inactive) | > 100 µM (inactive) | > 100 µM (inactive) | > 10 µM (inactive) | > 100 µM (inactive) | – | > 100 µM (inactive) | > 100 µM (inactive) | > 100 µM (inactive) | > 100 µM (inactive) | 8.13 µM (inactive) | – | > 100 µM (inactive) | > 100 µM (inactive) |
| O=C1CCC2CCOc3ccc(O)c1c32 (configuration not stated) | > 100 µM (inactive) | – | > 100 µM (inactive) | > 100 µM (inactive) | > 100 µM (inactive) | > 100 µM (inactive) | > 100 µM (inactive) | > 100 µM (inactive) | > 100 µM (inactive) | > 100 µM (inactive) | > 100 µM (inactive) | > 100 µM (inactive) | > 100 µM (inactive) | > 100 µM (inactive) | > 100 µM (inactive) |
| O=C(O)CC1CC=C[C@H]2c3cc4c(cc3C(=O)NC12)OCO4 (some centres not stated) | > 75 µM (inactive) | – | > 75 µM (inactive) | – | > 75 µM (inactive) | > 75 µM (inactive) | – | > 75 µM (inactive) | – | > 75 µM (inactive) | > 75 µM (inactive) | > 75 µM (inactive) | > 75 µM (inactive) | > 75 µM (inactive) | > 75 µM (inactive) |
